The values below come from US9095138B2, “Isoxazoline insecticides” (E.I. du Pont de Nemours and Company, priority 2007, dated 2015).

What all share (format): in vivo
Data set [1] deals with western flower thrips (Frankliniella occidentalis). As to the kind of experiment: Test E: control of western flower thrips on Soleil bean plant, contact and/or systemic. To be noted: adult thrips, assessed after 6 days, replicated three times. The method, then:
(§1) Test compounds were formulated using a solution containing 10% acetone, 90% water and 300 ppm X-77™ Spreader Lo-Foam Formula non-ionic surfactant containing alkylarylpolyoxyethylene, free fatty acids, glycols and isopropanol (Loveland Industries, Inc. Greeley, Colo., USA). The formulated compounds were applied in 1 mL of liquid through a SUJ2 atomizer nozzle with ⅛ JJ custom body (Spraying Systems Co. Wheaton, Ill., USA) positioned 1.27 cm (0.5 inches) above the top of each test unit. All experimental compounds in these tests were sprayed at 50 ppm, and the test was replicated three times. After spraying of the formulated test compound, each test unit was allowed to dry for 1 h and then a black, screened cap was placed on top. The test units were held for 6 days in a growth chamber at 25° C. and 70% relative humidity. Plant feeding damage was then visually assessed based on foliage consumed and a pest mortality rating was also counted and calculated for each test unit.
For evaluating control of the western flower thrips (Frankliniella occidentalis) through contact and/or systemic means, the test unit consisted of a small open container with a 5-7 day old Soleil Bean plant inside. Test compounds were formulated and sprayed as described for Test A. All experimental compounds in these tests were sprayed at 250 or 50 ppm as noted, and the test was replicated three times. After spraying, the test units were allowed to dry for 1 hour and then 22-27 adult thrips were added to each unit and then a black, screened cap was placed on top. The test units were held for 6 days at 25° C. and 45-55% relative humidity. A mortality rating was assessed along with a plant damage rating for each test unit.

In data set [2] the test system is diamondback moth (Plutella xylostella). As to the kind of experiment: Test A: control of diamondback moth on radish plant, foliar spray. To be noted: sprayed at 50 ppm; neonate larvae on radish; assessed after 6 days; replicated three times.
From the text: For evaluating control of diamondback moth (Plutella xylostella) the test unit consisted of a small open container with a 12-14-day-old radish plant inside. This was pre-infested with about 50 neonate larvae that were dispensed into the test unit via corn-cob grits using a bazooka inoculator. The larvae moved onto the test plant after being dispensed into the test unit.
as §1

The subject of data set [3] is fall armyworm (Spodoptera frugiperda). As to the kind of experiment: Test B: control of fall armyworm on corn (maize) plant, foliar spray. The following applies: sprayed at 50 ppm; 1-day-old larvae on corn; replicated three times. The method, then:
as §1
For evaluating control of fall armyworm (Spodoptera frugiperda) the test unit consisted of a small open container with a 4-5-day-old corn (maize) plant inside. This was pre-infested (using a core sampler) with 10-15 1-day-old larvae on a piece of insect diet. Test compounds were formulated and sprayed at 50 ppm as described for Test A and replicated three times. After spraying, the test units were maintained in a growth chamber and then the control efficacy was rated for each test unit as described for Test A.

As to `CC(NC(=O)c1ccc(C2=NOC(c3cc(C(F)(F)F)cc(C(F)(F)F)c3)(C(F)(F)F)C2)c2ccccc12)C(=O)O` (mixture of isomers) [Compound 31], the “control efficacy (feeding damage or mortality): very good to excellent levels” value (“control efficacy” below) in data set [1] (sprayed at 250 ppm), in data set [2] and in data set [3] was 20% or less feeding damage or 80% or more mortality in each case.
Take `CC(=O)N(C)CCCNC(=O)c1ccc(C2=NOC(c3cc(Cl)cc(Cl)c3)(C(F)(F)F)C2)c2ccccc12` (racemic) [Compound 4]: the “control efficacy” value in data set [1] (sprayed at 50 ppm), in data set [1] (sprayed at 250 ppm), in data set [2] and in data set [3] was 20% or less feeding damage or 80% or more mortality throughout.
As to `O=C(NCCSCC(F)(F)F)c1ccc(C2=NOC(c3cccc(C(F)(F)F)c3)(C(F)(F)F)C2)c2ccccc12` (racemic) [Compound 22], the “control efficacy” value in data set [1] (sprayed at 50 ppm), in data set [1] (sprayed at 250 ppm), in data set [2] and in data set [3] was 20% or less feeding damage or 80% or more mortality each time.
`O=C(NCC1CCCO1)c1ccc(C2=NOC(c3cc(C(F)(F)F)cc(C(F)(F)F)c3)(C(F)(F)F)C2)c2ccccc12` (stereo not shown) [Compound 27]: the “control efficacy” value in data set [2] and in data set [3] was 20% or less feeding damage or 80% or more mortality throughout.
Take `O=C(CNC(=O)c1ccc(C2=NOC(c3cc(Cl)cc(Cl)c3)(C(F)(F)F)C2)c2ccccc12)NCC1CC1` (stereo not shown) [Compound 44]: the “control efficacy” value in data set [1] (sprayed at 50 ppm), in data set [1] (sprayed at 250 ppm), in data set [2] and in data set [3] was 20% or less feeding damage or 80% or more mortality in each case.
Turning to `COCCNC(=O)CNC(=O)c1ccc(C2=NOC(c3cc(Cl)cc(Cl)c3)(C(F)(F)F)C2)c2ccccc12` (stereo not shown) [Compound 47], the “control efficacy” value in data set [1] (sprayed at 50 ppm), in data set [1] (sprayed at 250 ppm), in data set [2] and in data set [3] was 20% or less feeding damage or 80% or more mortality each time.
Turning to `CSCCNC(=O)CNC(=O)c1ccc(C2=NOC(c3cc(Cl)c(Cl)c(Cl)c3)(C(F)(F)F)C2)c2ccccc12` (stereo not shown) [Compound 49], the “control efficacy” value in data set [1] (sprayed at 250 ppm), in data set [2] and in data set [3] was 20% or less feeding damage or 80% or more mortality throughout.
As for `O=C(CNC(=O)c1ccc(C2=NOC(c3cc(Cl)cc(Cl)c3)(C(F)(F)F)C2)c2ccccc12)NC1CC1` (stereo not shown) [Compound 50], the “control efficacy” value in data set [1] (sprayed at 50 ppm), in data set [1] (sprayed at 250 ppm), in data set [2] and in data set [3] was 20% or less feeding damage or 80% or more mortality each time.
Take `O=C(CNC(=O)c1ccc(C2=NOC(c3cc(Cl)cc(Cl)c3)(C(F)(F)F)C2)c2ccccc12)NC1CCCCC1` (stereo not shown) [Compound 51]: the “control efficacy” value in data set [2] and in data set [3] was 20% or less feeding damage or 80% or more mortality each time.
On to `O=C(CNC(=O)c1ccc(C2=NOC(c3cc(Cl)cc(Cl)c3)(C(F)(F)F)C2)c2ccccc12)NC1CCCC1` (stereo not shown) [Compound 52], for which the “control efficacy” value in data set [2] and in data set [3] was 20% or less feeding damage or 80% or more mortality each time.
Consider `C[C@@H](NC(=O)c1ccc(C2=NOC(c3cc(Cl)cc(Cl)c3)(C(F)(F)F)C2)c2ccccc12)C(=O)NC1CC1` (stereo partly shown) [Compound 53], for which the “control efficacy” value in data set [1] (sprayed at 50 ppm), in data set [1] (sprayed at 250 ppm), in data set [2] and in data set [3] was 20% or less feeding damage or 80% or more mortality each time.
On to `O=C(CNC(=O)c1ccc(C2=NOC(c3cccc(C(F)(F)F)c3)(C(F)(F)F)C2)c2ccccc12)NC1CC1` (stereo not shown) [Compound 54], for which the “control efficacy” value in data set [2] and in data set [3] was 20% or less feeding damage or 80% or more mortality throughout.
Turning to `O=C(CNC(=O)c1ccc(C2=NOC(c3cc(C(F)(F)F)cc(C(F)(F)F)c3)(C(F)(F)F)C2)c2ccccc12)NC1CC1` (stereo not shown) [Compound 55], the “control efficacy” value in data set [1] (sprayed at 50 ppm), in data set [1] (sprayed at 250 ppm), in data set [2] and in data set [3] was 20% or less feeding damage or 80% or more mortality each time.
With `O=C(CNC(=O)c1ccc(C2=NOC(c3cccc(Br)c3)(C(F)(F)F)C2)c2ccccc12)NCC1CC1` (stereo not shown) [Compound 56], the “control efficacy” value in data set [2] and in data set [3] was 20% or less feeding damage or 80% or more mortality each time.
Take `O=C(CNC(=O)c1ccc(C2=NOC(c3cccc(OC(F)(F)F)c3)(C(F)(F)F)C2)c2ccccc12)NCC1CC1` (stereo not shown) [Compound 60]: the “control efficacy” value in data set [2] and in data set [3] was 20% or less feeding damage or 80% or more mortality in each case.
Consider `O=C(NCC(=O)N1CCCC1C(F)(F)F)c1ccc(C2=NOC(c3cc(Cl)cc(Cl)c3)(C(F)(F)F)C2)c2ccccc12` (stereo not shown) [Compound 91], for which the “control efficacy” value in data set [2] and in data set [3] was 20% or less feeding damage or 80% or more mortality throughout.
With `O=C(NCC(F)(F)F)[C@H]1CCCN1C(=O)c1ccc(C2=NOC(c3cc(Cl)cc(Cl)c3)(C(F)(F)F)C2)c2ccccc12` (stereo partly shown) [Compound 102], the “control efficacy” value in data set [2] and in data set [3] was 20% or less feeding damage or 80% or more mortality throughout.
In the case of `Cn1ccc2c(C(=O)NCC[S+](C)[O-])ccc(C3=NOC(c4cc(Cl)cc(Cl)c4)(C(F)(F)F)C3)c21` (stereo not shown) [Compound 111], the “control efficacy” value in data set [2] and in data set [3] was 20% or less feeding damage or 80% or more mortality throughout.
